Laboratory results: patent US8324188B2, “Combinations of ET-18-O-CH3and anti-cancer agents for the treatment of cancer” (priority 2006, dated 2012)

Key:
[1] = tested on: HMEC1 endothelial cells; details: cited from earlier work
[2] = tested on: A431; details: mean ± SD from three independent experiments, read-out: ED50 values for induction of apoptosis; cited from earlier work
[3] = tested on: LNCaP androgen-sensitive human prostate adenocarcinoma cells; experiment: Apo-ONE Homogenous Caspase-3/7 Assay in LNCaP cells; format: cell-based
Protocol: FIG. 1. Depicts the in vitro effects of 1-O-octadecyl-2-O-methyl-glycero-3-phosphocholine (final concentration 10 μM), (ionizing) radiation (absorbed dose of 5 Gray units; indicated as “RT”), and a combination thereof on programmed cell death (apoptosis) and the survival rate of LNCaP androgen-sensitive human prostate adenocarcinoma cells. Apoptosis was determined using the Apo-ONE™ Homogenous Caspase-317 Assay, Promega, Inc., Madison, Wis., USA according to the manufacturers instructions. The percentage of living cancer cells was estimated by means of trypan blue dye exclusion as described (Freshney, R. I. (1994) Culture of Animal Cells: A Manual of Basic Technique. 3rd Ed. Wiley-Liss. New York. USA). The cells were exposed to radiation six hours after (FIG. 1A), concomitantly with (FIG. 1B), or six hours before administration of 1-O-octadecyl-2-O-methyl-glycero-3-phospho-choline (FIG. 1C). The caspase assay was performed 12 hours after exposure to radiation. The respective data shown represent the average of two independent experiments.
First, the in vitro effects of 1-O-octadecyl-2-O-methyl-glycero-3-phosphocholine, (ionizing) radiation, and a combination thereof on programmed cell death (apoptosis) and the survival rate of LNCaP androgen-sensitive human prostate adenocarcinoma cells were measured. The LNCaP cell line was established from a metastatic lesion of the adenocarcinoma. The cells were treated with a final concentration of 10 μM 1-O-octadecyl-2-O-methyl-glycero-3-phosphocholine and (ionizing) radiation corresponding to an absorbed dose of 5 Gray units.
Apoptosis was determined using the Apo-ONE™ Homogenous Caspase-3/7 Assay, Promega, Inc., Madison, VV1, USA according to the manufacturers instructions. The percentage of living tumor cells was estimated by means of trypan blue dye exclusion as described (Freshney, R. I. (1994) Culture of Animal Cells: A Manual of Basic Technique. 3rd Ed. Wiley-Liss. New York. USA)
The cells were exposed to radiation six hours after (FIG. 1A), concomitantly with (FIG. 1B), or six hours before administration of 1-O-octadecyl-2-O-methyl-glycero-3-phospho-choline (FIG. 1C). The caspase assay was performed 12 hours after exposure to radiation. The respective data shown represent the average of two independent experiments.
In a further approach, 10 μM 1-O-octadecyl-2-O-methyl-glycero-3-phosphocholine (final concentration; “CHEM”) and (ionizing) radiation (5 Gray units; “RT”) were administered simultaneously to the LNCaP cells but the subsequent incubation period was extended to 24 hours. Apoptosis was measured using the Apo-ONE™ Homogenous Caspase-3/7 Assay as described above and expressed as relative fluorescence units (RFLU). The percentage of apoptotic cells was determined by flow cytometric analysis of annexin V-PE positive-stained and 7-AAD (7-Amino ActinomycinD) negative-stained cells (both purchased from BD Biosciences, San Jose, Calif., USA) according to established standard protocols. The data represent means±SEM from three independent experiments.
Apoptosis was measured using the Apo-ONE™ Homogenous Caspase-3/7 Assay as described above and expressed as relative fluorescence units (RFLU). The percentage of apoptotic cells was determined via annexin V-PE/7-AAD staining as described above. The caspase-317 assay and annexin staining were performed 22 hours after CHEM treatment.

[4] = tested on: U87MG; experiment: WST-1 proliferation assay, U87MG; format: cell-based, human
Protocol: AP-121 was prepared as 5 mM stock solution in distilled sterile water, Temozolomide (TMZ) (Haorui Pharma-Chem, Inc., Edison, N.J.) was prepared as 100 mM in sterile filtrated DMSO; Adriamycin (ADR) (Sigma) was prepared as 1 mM in distilled sterile water; Camptothecin (CTP) (Sigma) was prepared as 10 mM solution in 0.1 N NaOH; Tarceva (Proteinkinase, Germany) was prepared as 5 mM solution in sterile DMSO. All compound stocks were kept at −20° C. 2000 cells were plated in each well of 96-well flat bottom plates, and incubated overnight at 37 °C in 5% CO2. The growth of plated cells was measured by adding […] of WST-1 reagent (Roche Applied Sciences, Germany) to 3 control wells and measuring the absorbance at 650 nm and at 450 nm, respectively, with a SpectraMax250 plate reader. […] After this incubation, VVST-1 reagent was added to the wells and OD650-OD450 values were calculated as before. six wells were assayed for each conditions and standard deviation was determined: all experiments were performed at least three times independently. […] Six different concentrations of each drug were used in combinations index measurements and compared to +/− cells, and compared to controls without compound.

- IC50 ([4]; Homo sapiens, U-87 MG): 8.5 µM
- EC50 ([4]; Homo sapiens, U-87 MG, single agent or compound mixture as labelled (arrays A2, A1), read-out: ED50 (the source's name)): 6.8 µM
Structure (SMILES): CCCCCCCCCCCCCCCCCCOCC(COP(=O)([O-])OCC[N+](C)(C)C)OC (racemic) [AP-121, 1-O-octadecyl-2-O-methyl-glycero-3-phosphocholine]
- anti-angiogenic activity [1]: 60 nM
- EC50 [2]: 15.5 ± 2.9 µM
- increase in apoptotic response (caspase-3/7 assay) ([3]; 10 μM administered six hours prior to radiation (5 Gray), combined treatment (FIG. 1A)): > 2.5 fold
- extent of apoptosis, increase in cells only exposed to the chemical as compared to the combined treatment ([3]; 10 μM, radiation six hours before (FIG. 1C)): about 25%
- Caspase-3/7 activity (RFLU) ([3]; AD (androgen deprivation, two days) + 5 μM CHEM, AD alone 81): 126 RFLU
- Caspase-3/7 activity (RFLU) ([3]; AD + 10 μM CHEM): 115 RFLU
- Caspase-3/7 activity (RFLU) ([3]; AD + R1881 (two days prior) + 5 μM CHEM): 453 RFLU
- Caspase-3/7 activity (RFLU) ([3]; AD + R1881 (two days prior) + 10 μM CHEM): 962 RFLU
- Caspase-3/7 activity (RFLU) ([3]; CHEM 10 μM + RT 5 Gray simultaneously, 24 hours, means±SEM, p < 0.0001 vs CHEM and RT): 1514 ± 102 RFLU
- Caspase-3/7 activity (RFLU) ([3]; CHEM 10 μM alone, 24 hours, means±SEM, three experiments, Control 193 ± 39): 580 ± 207 RFLU
- Caspase-3/7 activity (RFLU) ([3]; Contr. + 5 μM CHEM, 22 hours after CHEM, Contr. 235): 380 RFLU
- Caspase-3/7 activity (RFLU) ([3]; Contr. + 10 μM CHEM, 22 hours after CHEM): 436 RFLU
- normalized ED50 (arrays B2, B1) ([4]; ratio to the largest value): 1
